Reference: patent publication US5795885A, “Method of inhibiting profileration of cells by administering an aminosterol compound” (priority 1995, dated 1998)
Values after ≈ are worked out from the molar mass of the structure shown.

Legend:
P. aerug = assay: antibiotic activity (MIC); type: cell-based
[1] = tested on: stage 59-60 Xenopus tadpoles; conditions: for tadpole response similar to FX 3 / tadpole response similar to compound 1436 / tadpole response similar to compound 1437 / tadpole response similar to Fraction 1: tadpole assay
[2] = tested on: chick embryo vitelline capillaries; assay: chick embryo vitelline capillary regression assay; type: in vivo; design: key to vitelline capillary regression: +: Vascular reactivity; 0: No vascular reactivity; +/-: Equivocal reactivity; conditions: for vitelline capillary regression: 60 minutes
Experimental: Using the chick embryo vitelline capillaries assay, compounds were tested for their ability to induce capillary regression. Each compound was applied in 0.1 ml of 15% Ficol 400 and PBS onto the embryo, and vascular regression was assessed after 60 minutes.
The 3-day chick embryo consists of an embryonic disc from which numerous vessels emerge and return, forming a "figure 8"-shaped structure--the embryo in the center with vascular loops extending outward over both poles. […] Following a lag period of around 15 minutes, the constriction of continuity between capillary and secondary vessels, generally on the "venous" side, was observed. Continued pulsatile blood flow progressed, resulting in a "swelling" of the blind tube, followed by a pinching off of the remaining connection and formation of an enclosed vascular sac resembling a "blood island." This process progressed until only the largest vessels remained intact.

Question: For `CC(C)CCC[C@@H](C)[C@H]1CC[C@H]2[C@@H]3CC[C@H]4C[C@H](NCCCCN)CC[C@]4(C)[C@H]3CC[C@]12C`, which MIC (P. aerug) is on record?
Answer: Its MIC is > 256 µg/mL.

Question: With `CC(C)CCC[C@@H](C)[C@H]1CC[C@H]2[C@@H]3CC[C@H]4C[C@@H](NCCCCN)CC[C@]4(C)[C@H]3CC[C@]12C` as the compound, how does the MIC (P. aerug) read?
Answer: Its MIC is > 256 µg/mL.

Question: `CC(COS(=O)(=O)O)C(=O)CC[C@@H](C)[C@H]1CC[C@H]2[C@@H]3[C@H](O)C[C@H]4C[C@@H](NCCCNCCCCN)CC[C@]4(C)[C@H]3CC[C@]12C` (some centres unmarked) was tested. Which MIC (P. aerug) did it give?
Answer: The MIC was 128 µg/mL (≈ 199 µM).

Question: For `CC(C)C(CCC(C)C1CCC2C3C(O)CC4CC(NCCCNCCCCN)CCC4(C)C3CCC12C)OS(=O)(=O)O` (centres unmarked), which “Tadpole: GI (gastrointestinal)” value ([1]; 10 μg/mL) is on record?
Answer: Its value is “-”.

Question: What about the “Tadpole: M (melanocytes)” value ([1]; 10 μg/mL) of the same compound?
Answer: The value was “-”.

Question: And the “Tadpole: Mus (muscle)” value ([1]; 10 μg/mL)?
Answer: The value was “-”.

Question: What about the “Tadpole: V (vascular)” value ([1]; 10 μg/mL) of the same compound?
Answer: Its value is “+”.

Question: For `CC(C)C(CCC(C)C1CCC2C3C(O)CC4CC(NCCCNCCCCNCCCN)CCC4(C)C3CCC12C)OS(=O)(=O)O` (centres unmarked), which “Tadpole: E (epithelial)” value ([1]; 10 μg/mL) is on record?
Answer: The value was “±”.

Question: And the “Tadpole: M (melanocytes)” value ([1]; 10 μg/mL)?
Answer: Its value is “+”.

Question: And the “Tadpole: Mus (muscle)” value ([1]; 10 μg/mL)?
Answer: Its value is “-”.

Question: And the “Tadpole: V (vascular)” value ([1]; 10 μg/mL)?
Answer: The value was “+”.

Question: Which vitelline capillary regression ([2]; 1 μg applied) does the source give for `CC(C)CCC[C@@H](C)[C@H]1CC[C@H]2[C@@H]3CC[C@H]4C[C@@H](NCCCNCCCCN)CC[C@]4(C)[C@H]3CC[C@]12C` [Compound 303] here?
Answer: Its vitelline capillary regression is 0.

Question: With `C[C@H](CCC(=O)O)[C@H]1CC[C@H]2[C@@H]3CC[C@H]4C[C@H](NCCCNCCCCN)CC[C@]4(C)[C@H]3CC[C@]12C` [Compound 318] as the compound, how does the vitelline capillary regression ([2]; 1 μg applied) read?
Answer: The vitelline capillary regression was 0.

Question: How did the “tadpole response similar to FX 3” value [1] turn out when `CC(C)CCC[C@@H](C)[C@H]1CC[C@H]2[C@@H]3[C@H](O)C[C@H]4C[C@H](NCCCNCCCCN)CC[C@]4(C)[C@H]3CC[C@]12C` [Compound 370] was run?
Answer: The value was “exhibiting pharmacologic activity similar to that seen for FX 3”.

Question: How did the “tadpole response similar to compound 1436” value [1] turn out when `CC(C)CCC[C@@H](C)[C@H]1CC[C@H]2[C@@H]3[C@H](O)C[C@H]4C[C@@H](NCCCNCCCCN)CC[C@]4(C)[C@H]3CC[C@]12C` [Compound 371] was run?
Answer: Its value is “produce effects like those produced by compound 1436”.

Question: And the vitelline capillary regression ([2]; 0.001 μg applied)?
Answer: Its vitelline capillary regression is 0.

Question: What about the vitelline capillary regression ([2]; 0.01 μg applied) of the same compound?
Answer: The vitelline capillary regression was 0.

Question: And the vitelline capillary regression ([2]; 0.1 μg applied)?
Answer: Its vitelline capillary regression is 0.

Question: And the vitelline capillary regression ([2]; 1 μg applied)?
Answer: Its vitelline capillary regression is “+/-”.

Question: And the vitelline capillary regression ([2]; 10 μg applied)?
Answer: The vitelline capillary regression was “+”.

Question: How did the vitelline capillary regression ([2]; 1 μg applied) turn out when `C[C@H](CCC(=O)O)[C@H]1CC[C@H]2[C@@H]3[C@H](O)C[C@H]4C[C@@H](NCCCNCCCCN)CC[C@]4(C)[C@H]3CC[C@]12C` [Compound 381] was run?
Answer: The vitelline capillary regression was 0.

Question: What does the source list for `C[C@H](CCC(=O)O)[C@H]1CC[C@H]2[C@@H]3[C@H](O)C[C@H]4C[C@H](NCCCNCCCCN)CC[C@]4(C)[C@H]3CC[C@]12C` [Compound 382]?
Answer: vitelline capillary regression ([2]; 0.001 μg applied): 0; vitelline capillary regression ([2]; 0.01 μg applied): 0; vitelline capillary regression ([2]; 0.1 μg applied): 0; vitelline capillary regression ([2]; 1 μg applied): +; vitelline capillary regression ([2]; 10 μg applied): +

Question: `COC(=O)CC[C@@H](C)[C@H]1CC[C@H]2[C@@H]3[C@H](O)C[C@H]4C[C@@H](NCCCNCCCCNCCCN)CC[C@]4(C)[C@H]3CC[C@]12C` [Compound 396] was tested. Which vitelline capillary regression ([2]; 1 μg applied) did it give?
Answer: The vitelline capillary regression was “+”.

Question: For `COC(=O)CC[C@@H](C)[C@H]1CC[C@H]2[C@@H]3[C@H](O)C[C@@H]4C[C@@H](NCCN)CC[C@]4(C)[C@H]3CC[C@]12C` [Compound 409], which “tadpole response similar to compound 1437” value [1] is on record?
Answer: Its value is “functionally similar to compound 1437”.

Question: What about the vitelline capillary regression ([2]; 1 μg applied) of the same compound?
Answer: Its vitelline capillary regression is 0.

Question: With `COC(=O)CC[C@@H](C)[C@H]1CC[C@H]2[C@@H]3[C@H](O)C[C@@H]4C[C@H](NCCN)CC[C@]4(C)[C@H]3CC[C@]12C` [Compound 410] as the compound, how does the “tadpole response similar to compound 1437” value [1] read?
Answer: The value was “functionally similar to compound 1437”.

Question: What about the vitelline capillary regression ([2]; 0.001 μg applied) of the same compound?
Answer: Its vitelline capillary regression is 0.

Question: What about the vitelline capillary regression ([2]; 0.01 μg applied) of the same compound?
Answer: The vitelline capillary regression was “+/-”.

Question: And the vitelline capillary regression ([2]; 0.1 μg applied)?
Answer: Its vitelline capillary regression is “+/-”.

Question: And the vitelline capillary regression ([2]; 1 μg applied)?
Answer: The vitelline capillary regression was “+”.

Question: Which results are given for `C[C@H](CCC(=O)O)[C@H]1CC[C@H]2[C@@H]3[C@H](O)C[C@@H]4C[C@H](NCCCNCCCCNCCCN)CC[C@]4(C)[C@H]3CC[C@]12C` [Compound 412]?
Answer: tadpole response similar to FX 3 [1]: exhibiting pharmacologic activity similar to that seen for FX 3; vitelline capillary regression ([2]; 0.001 μg applied): 0; vitelline capillary regression ([2]; 0.01 μg applied): 0; vitelline capillary regression ([2]; 0.1 μg applied): 0; vitelline capillary regression ([2]; 1 μg applied): +

Question: For `C[C@H](CCC(=O)O)[C@H]1CC[C@H]2[C@@H]3[C@H](O)C[C@@H]4C[C@@H](NCCCNCCCCNCCCN)CC[C@]4(C)[C@H]3CC[C@]12C` [Compound 413], which “tadpole response similar to compound 1436” value [1] is on record?
Answer: Its value is “produce effects like those produced by compound 1436”.

Question: What about the vitelline capillary regression ([2]; 1 μg applied) of the same compound?
Answer: Its vitelline capillary regression is 0.

Question: With `C[C@H](CCC(=O)O)[C@H]1CC[C@H]2[C@@H]3[C@H](O)C[C@@H]4C[C@H](NCCN)CC[C@]4(C)[C@H]3CC[C@]12C` [Compound 414] as the compound, how does the “tadpole response similar to Fraction 1” value [1] read?
Answer: The value was “pharmacologic activity similar to Fraction 1”.

Question: And the vitelline capillary regression ([2]; 1 μg applied)?
Answer: Its vitelline capillary regression is 0.

Question: Which vitelline capillary regression ([2]; 0.001 μg applied) does the source give for `C[C@H](CCC(=O)O)[C@H]1CC[C@H]2[C@@H]3[C@H](O)C[C@@H]4C[C@@H](NCCN)CC[C@]4(C)[C@H]3CC[C@]12C` [Compound 415] here?
Answer: Its vitelline capillary regression is 0.

Question: And the vitelline capillary regression ([2]; 0.01 μg applied)?
Answer: Its vitelline capillary regression is “+”.

Question: And the vitelline capillary regression ([2]; 0.1 μg applied)?
Answer: The vitelline capillary regression was “+”.

Question: What about the vitelline capillary regression ([2]; 1 μg applied) of the same compound?
Answer: Its vitelline capillary regression is “+”.

Question: What about the “activity in vitelline capillary regression assay (in words)” value ([2]; in vivo) of the same compound?
Answer: Its value is “especially active”.

Question: How did the “tadpole response similar to compound 1437” value [1] turn out when `COC(=O)CC[C@@H](C)[C@H]1CC[C@H]2[C@@H]3CC[C@@H]4C[C@H](NCCN)CC[C@]4(C)[C@H]3C[C@H](O)[C@]12C` [Compound 416] was run?
Answer: Its value is “functionally similar to compound 1437”.

Question: Which “tadpole response similar to compound 1437” value [1] does the source give for `COC(=O)CC[C@@H](C)[C@H]1CC[C@H]2[C@@H]3C[C@@H](O)[C@H]4C[C@H](NCCN)CC[C@]4(C)[C@H]3CC[C@]12C` [Compound 431] here?
Answer: Its value is “functionally similar to compound 1437”.

Question: How did the “tadpole response similar to compound 1437” value [1] turn out when `COC(=O)CC[C@@H](C)[C@H]1CC[C@H]2[C@@H]3C[C@@H](O)[C@H]4C[C@@H](NCCN)CC[C@]4(C)[C@H]3CC[C@]12C` [Compound 432] was run?
Answer: Its value is “functionally similar to compound 1437”.

Question: For `C[C@H](CCC(=O)O)[C@H]1CC[C@H]2[C@@H]3C[C@@H](O)[C@H]4C[C@@H](NCCN)CC[C@]4(C)[C@H]3CC[C@]12C` [Compound 433], which “tadpole response similar to compound 1437” value [1] is on record?
Answer: Its value is “functionally similar to compound 1437”.

Question: How did the “tadpole response similar to FX 3” value [1] turn out when `COC(=O)CC[C@@H](C)[C@H]1CC[C@H]2[C@@H]3CC[C@H]4C[C@H](NCCCNCCCCNCCCN)CC[C@]4(C)[C@H]3CC[C@]12C` [Compound 458] was run?
Answer: Its value is “exhibiting pharmacologic activity similar to that seen for FX 3”.

Question: Which “tadpole response similar to FX 3” value [1] does the source give for `COC(=O)CC[C@@H](C)[C@H]1CC[C@H]2[C@@H]3CC[C@H]4C[C@@H](NCCCNCCCCNCCCN)CC[C@]4(C)[C@H]3CC[C@]12C` [Compound 459] here?
Answer: The value was “exhibiting pharmacologic activity similar to that seen for FX 3”.

Question: For `COC(=O)CC[C@@H](C)[C@H]1CC[C@H]2[C@@H]3C[C@@H](O)[C@H]4C[C@H](NCCCNCCCCNCCCN)CC[C@]4(C)[C@H]3CC[C@]12C` [Compound 465], which “tadpole response similar to FX 3” value [1] is on record?
Answer: Its value is “exhibiting pharmacologic activity similar to that seen for FX 3”.

Question: For `COC(=O)CC[C@@H](C)[C@H]1CC[C@H]2[C@@H]3C[C@@H](O)[C@H]4C[C@@H](NCCCNCCCCNCCCN)CC[C@]4(C)[C@H]3CC[C@]12C` [Compound 466], which “tadpole response similar to FX 3” value [1] is on record?
Answer: The value was “exhibiting pharmacologic activity similar to that seen for FX 3”.

Question: How did the “tadpole response similar to Fraction 1” value [1] turn out when `CC(C)CCC[C@@H](C)[C@H]1CC[C@H]2[C@@H]3[C@H](O)C[C@H]4C[C@H](N)CC[C@]4(C)[C@H]3CC[C@]12C` [Compound 1363] was run?
Answer: The value was “pharmacologic activity similar to Fraction 1”.

Question: `CC(C)CCC[C@@H](C)[C@H]1CC[C@H]2[C@@H]3[C@H](O)C[C@H]4C[C@@H](N)CC[C@]4(C)[C@H]3CC[C@]12C` [Compound 1364] was tested. Which vitelline capillary regression ([2]; 0.001 μg applied) did it give?
Answer: The vitelline capillary regression was 0.

Question: And the vitelline capillary regression ([2]; 0.01 μg applied)?
Answer: The vitelline capillary regression was 0.

Question: What about the vitelline capillary regression ([2]; 0.1 μg applied) of the same compound?
Answer: Its vitelline capillary regression is 0.

Question: What about the vitelline capillary regression ([2]; 1 μg applied) of the same compound?
Answer: Its vitelline capillary regression is “+”.

Question: What about the vitelline capillary regression ([2]; 10 μg applied) of the same compound?
Answer: Its vitelline capillary regression is “+”.
